# System: group I PAKs in EBC1 cells (MEK1 phosphorylation at S298)
# Experiment: Cellular PAK IC50 Assay: MEK1 phosphorylation at S298 by HTRF
# Type: cell-based
# Settings: Homo sapiens, EBC-1, 2 h treatment, media containing 0.1% FBS, phospho-MEK1 (S298) HTRF
# Method: Cellular PAK IC50 Assay Protocol
# Group I PAKs (PAK1-3) are activated upon binding to the Rho GTPases, Rac1 and Cdc42. Activated group I PAKs phosphorylate MEK1 at Serine 298 (S298), one of the two sites in the catalytic domain that is important for stable association between Raf and MEK1 and subsequent MAPK activation. The inhibition of group I PAKs in EBC1 cells is assessed by detecting changes in the level of MEK1 phosphorylation at S298 using homogenous time-resolved fluorescence (HTRF). Inhibitory activity was estimated by treating 2×10^4 EBC1 cells for 2 h with PAK inhibitors in media containing 0.1% FBS. Following inhibitor treatment, cells were lysed with 25 μL of 1× cellular kinase lysis buffer (Cisbio) containing 1× cellular kinase blocking reagent (Cisbio). Cellular lysis was carried out at 4° C. for 2 h with constant shaking before lysate (16 μL) was transferred to white 384-well ProxiPlates™ (Perkin Elmer). Anti-total MEK1 antibody labeled with Europium cryptate donor (1 ng/well) (Cell Signaling Technologies catalog number 2352) and anti-phospho MEK1 (S298) antibody labeled with d2 acceptor (Cell Signaling Technologies catalog number 9128) (10 ng/well) were prepared in 1× detection buffer (CisBio) and added to each well of the assay plate and allowed to incubate at RT overnight. The following day the fluorescence emission from each well was measured in EnVision® (Perkin Elmer) at an excitation of 330 nm and dual emission wavelengths of 615 nm and 665 nm. The signal in each well at 665 nm was multiplied by 10,000 and divided by the signal in the same well at 615 nm to obtain a ratio. Ratio values ([665·10,000]÷615) were plotted as a function of the concentration of compound to determine IC50 values.
row,IC50 [nM],Compound
1,146,"CCNc1ncc2cc(-c3ccc(-c4cncc(C)n4)cc3Cl)c(=O)n(CCCCN)c2n1 [Example I-2, 8-(4-Aminobutyl)-6-[2-chloro-4-(6-methylpyrazin-2-yl)phenyl]-2-(ethylamino)pyrido[2,3-d]pyrimidin-7-one]"
2,147,"CCNc1ncc2cc(-c3ccc(-c4cncc(C)n4)cc3Cl)c(=O)n(C[C@H]3CC[C@H](N)CC3)c2n1 [Example I-5, 8-(((1r,4r)-4-aminocyclohexyl)methyl)-6-(2-chloro-4-(6-methylpyrazin-2-yl)phenyl)-2-(ethylamino)pyrido[2,3-d]pyrimidin-7(8H)-one]"
3,170,"CCNc1ncc2cc(-c3ccc(-c4cncc(C)n4)cc3Cl)c(=O)n(CC3CCNCC3)c2n1 [Example I-6, 6-(2-Chloro-4-(6-methylpyrazin-2-yl)phenyl)-2-(ethylamino)-8-(piperidin-4-ylmethyl)pyrido[2,3-d]pyrimidin-7(8H)-one]"
4,46.8,"CCNc1ncc2cc(-c3ccc(-c4cccc(C)n4)cc3Cl)c(=O)n(C[C@H]3CC[C@H](N)CC3)c2n1 [Example I-15, 8-(((1r,4r)-4-Aminocyclohexyl)methyl)-6-(2-chloro-4-(6-methylpyridin-2-yl)phenyl)-2-(ethylamino)pyrido[2,3-d]pyrimidin-7(8H)-one]"

# Biological target: human recombinant PAK1-KD protein (Homo sapiens, UniProt Q13153)
# Sequence (Q13153 270-521 limits assumed): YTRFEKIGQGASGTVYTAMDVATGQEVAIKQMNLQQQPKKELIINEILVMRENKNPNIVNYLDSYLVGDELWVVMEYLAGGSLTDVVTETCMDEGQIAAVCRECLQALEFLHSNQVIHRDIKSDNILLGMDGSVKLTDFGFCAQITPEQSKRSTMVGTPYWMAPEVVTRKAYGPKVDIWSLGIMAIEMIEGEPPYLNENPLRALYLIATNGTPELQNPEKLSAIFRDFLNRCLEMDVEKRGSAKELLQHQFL
# Experiment: PAK1-KD (Kinase Domain) IC50 Zlyte Assay (FRET peptide substrate phosphorylation)
# Settings: Z'-LYTE, Biological Example 1
# Source text: PAK1-KD (Kinase Domain) IC50 Zlyte Assay Protocol
# Activity of human recombinant PAK1-KD protein may be assessed in vitro by assay of the phosphorylation of a FRET peptide substrate. Catalytically active human recombinant PAK1-KD protein is obtained by purification from Tini cells infected with a human PAK1-KD recombinant baculovirus expression vector.
# The activity/inhibition of PAK1-KD was estimated by measuring the phosphorylation of a FRET peptide substrate (Ser/Thr19) labeled with Coumarin and Fluorescein using Z′-LYTE™ assay (Invitrogen). The peptide substrate is a consensus sequence ([sequence]) based on various PAK substrates reported in the scientific literature. […] Incubations were carried out at 22° C. in black polypropylene 384-well plates (Corning Costar).
row,Ki [nM],Compound
1,19.8,"CNc1ncc2cc(-c3ccc(-c4cccc(C)n4)cc3Cl)c(=O)n(CC3CCN(C)CC3)c2n1 [Example I-175, 6-[2-chloro-4-(6-methyl-2-pyridyl)phenyl]-2-(methylamino)-8-[(1-methyl-4-piperidyl)methyl]pyrido[2,3-d]pyrimidin-7-one]"
2,11,"CNc1ncc2cc(-c3ccc(-c4cccc(C)n4)cc3Cl)c(=O)n(C[C@H]3[C@@H]4CN(C)C[C@@H]43)c2n1 [Example I-176, 6-[2-chloro-4-(6-methyl-2-pyridyl)phenyl]-2-(methylamino)-8-[[(1R,5S)-3-methyl-3-azabicyclo[3.1.0]hexan-6-yl]methyl]pyrido[2,3-d]pyrimidin-7-one]"
3,6.82,"CNc1ncc2cc(-c3ccc(-c4cncc(C)n4)cc3Cl)c(=O)n(CC[C@H]3OC[C@H](N)CO3)c2n1 [Example I-177, 8-[2-(5-amino-1,3-dioxan-2-yl)ethyl]-6-[2-chloro-4-(6-methylpyrazin-2-yl)phenyl]-2-(methylamino)pyrido[2,3-d]pyrimidin-7-one]"
4,13.5,"CNc1ncc2cc(-c3ccc(-c4cncc(C)n4)cc3Cl)c(=O)n(C[C@H]3OC[C@H](NC)CO3)c2n1 [Example I-178, 6-[2-Chloro-4-(6-methylpyrazin-2-yl)phenyl]-2-(methylamino)-8-[[5-(methylamino)-1,3-dioxan-2-yl]methyl]pyrido[2,3-d]pyrimidin-7-one]"
5,66.6,"CNc1ncc2cc(-c3ccc(-c4csc(C)n4)cc3Cl)c(=O)n(C[C@@H]3CNCCO3)c2n1 [Example I-179, 6-[2-chloro-4-(2-methylthiazol-4-yl)phenyl]-2-(methylamino)-8-[[(2S)-morpholin-2-yl]methyl]pyrido[2,3-d]pyrimidin-7-one]"
6,110,"CNc1ncc2cc(-c3ccc(-c4cncc(C)n4)cc3Cl)c(=O)n(C3CCS(=N)(=O)CC3)c2n1 (centres unmarked) [Example I-181, 6-[2-chloro-4-(6-methylpyrazin-2-yl)phenyl]-8-(1-imino-1-oxo-thian-4-yl)-2-(methylamino)pyrido[2,3-d]pyrimidin-7-one]"
7,44.7,"CNc1ncc2cc(-c3ccc(-c4csc(C)n4)cc3Cl)c(=O)n(C[C@H]3CNCCO3)c2n1 [Example I-182, 6-[2-chloro-4-(2-methylthiazol-4-yl)phenyl]-2-(methylamino)-8-[[(2R)-morpholin-2-yl]methyl]pyrido[2,3-d]pyrimidin-7-one]"
8,26.8,"CNc1ncc2cc(-c3ccc(-c4cccc(C)n4)cc3Cl)c(=O)n(C[C@@H]3CN(C)CCO3)c2n1 [Example I-183, 6-[2-chloro-4-(6-methyl-2-pyridyl)phenyl]-2-(methylamino)-8-[[(2S)-4-methylmorpholin-2-yl]methyl]pyrido[2,3-d]pyrimidin-7-one]"
9,43.1,"CNc1ncc2cc(-c3ccc(-c4csc(C5CC5)n4)cc3Cl)c(=O)n(C[C@@H]3CNCCO3)c2n1 [Example I-184, 6-[2-chloro-4-(2-cyclopropylthiazol-4-yl)phenyl]-2-(methylamino)-8-[[(2S)-morpholin-2-yl]methyl]pyrido[2,3-d]pyrimidin-7-one]"
10,47.3,"CNc1ncc2cc(-c3ccc(-c4csc(C5CC5)n4)cc3Cl)c(=O)n(C[C@H]3CNCCO3)c2n1 [Example I-185, 6-[2-chloro-4-(2-cyclopropylthiazol-4-yl)phenyl]-2-(methylamino)-8-[[(2R)-morpholin-2-yl]methyl]pyrido[2,3-d]pyrimidin-7-one]"
11,11.9,"CNc1ncc2cc(-c3ccc(-c4cccc(C)n4)cc3C)c(=O)n(CC3C4CN(C)CC43)c2n1 (centres unmarked) [Example I-186, 2-(methylamino)-8-[(3-methyl-3-azabicyclo[3.1.0]hexan-6-yl)methyl]-6-[2-methyl-4-(6-methyl-2-pyridyl)phenyl]pyrido[2,3-d]pyrimidin-7-one]"
12,8.1,"Cc1cccc(-c2ccc(-c3cc4cnc(NC5COC5)nc4n(C[C@@H]4CNCCO4)c3=O)c(Cl)c2)n1 [Example I-188, 6-[2-chloro-4-(6-methyl-2-pyridyl)phenyl]-8-[[(2S)-morpholin-2-yl]methyl]-2-(oxetan-3-ylamino)pyrido[2,3-d]pyrimidin-7-one]"
13,25.8,"CNc1ncc2cc(-c3ccc(-c4nc(C)cs4)cc3Cl)c(=O)n(C[C@H]3CNCCO3)c2n1 [Example I-189, 6-[2-chloro-4-(4-methylthiazol-2-yl)phenyl]-2-(methylamino)-8-[[(2R)-morpholin-2-yl]methyl]pyrido[2,3-d]pyrimidin-7-one]"
14,15.2,"CNc1ncc2cc(-c3ccc(-c4csc(C)n4)cc3Cl)c(=O)n(C[C@H]3OC[C@H](N)CO3)c2n1 [Example I-190, 8-[(5-amino-1,3-dioxan-2-yl)methyl]-6-[2-chloro-4-(2-methylthiazol-4-yl)phenyl]-2-(methylamino)pyrido[2,3-d]pyrimidin-7-one]"
15,4400,"CNc1ncc2cc(-c3ccc(-c4ncn(C)n4)cc3Cl)c(=O)n(C[C@H]3CNCCO3)c2n1 [Example I-192, 6-[2-chloro-4-(1-methyl-1 2 4-triazol-3-yl)phenyl]-2-(methylamino)-8-[[(2R)-morpholin-2-yl]methyl]pyrido[2,3-d]pyrimidin-7-one]"
16,20.8,"CCc1cc(-c2cccc(C)n2)ccc1-c1cc2cnc(NC3COC3)nc2n(C[C@H]2CNCCO2)c1=O [Example I-193, 6-[2-ethyl-4-(6-methyl-2-pyridyl)phenyl]-8-[[(2R)-morpholin-2-yl]methyl]-2-(oxetan-3-ylamino)pyrido[2,3-d]pyrimidin-7-one]"
17,26.5,CCc1cc(-c2cccc(C)n2)ccc1-c1cc2cnc(NC3COC3)nc2n(C[C@@H]2CNCCO2)c1=O [Example I-194]
18,35.4,"CNc1ncc2cc(-c3ccc(-c4cccc(CO)n4)cc3Cl)c(=O)n(C[C@@H]3CNCCO3)c2n1 [Example I-195, 6-[2-Chloro-4-[6-(hydroxymethyl)-2-pyridyl]phenyl]-2-(methylamino)-8-[[(2S)-morpholin-2-yl]methyl]pyrido[2,3-d]pyrimidin-7-one]"
19,18.5,"CNc1ncc2cc(-c3ccc(-c4cccc(C)n4)cc3Cl)c(=O)n(CCOC3CN(C)C3)c2n1 [Example I-196, 6-[2-chloro-4-(6-methyl-2-pyridyl)phenyl]-2-(methylamino)-8-[2-(1-methylazetidin-3-yl)oxyethyl]pyrido[2,3-d]pyrimidin-7-one]"
20,1.2,"CCc1cc(-c2cccc(C)n2)ccc1-c1cc2cnc(NC3COC3)nc2n(CC[C@H]2OC[C@H](N)CO2)c1=O [Example I-198, 8-[2-(5-Amino-1,3-dioxan-2-yl)ethyl]-6-[2-ethyl-4-(6-methyl-2-pyridyl)phenyl]-2-(oxetan-3-ylamino)pyrido[2,3-d]pyrimidin-7-one]"
21,2.8,"CNc1ncc2cc(-c3ccc(-c4cccc(C)n4)cc3Cl)c(=O)n(CCC3(C#N)CCNC3)c2n1 (centres unmarked) [Example I-199, 3-[2-[6-[2-chloro-4-(6-methyl-2-pyridyl)phenyl]-2-(methylamino)-7-oxo-pyrido[2,3-d]pyrimidin-8-yl]ethyl]pyrrolidine-3-carbonitrile]"
22,7.1,"CNc1ncc2cc(-c3ccc(-c4cccc(C)n4)cc3Cl)c(=O)n(CCC3CNCCS3(=O)=O)c2n1 (centres unmarked) [Example I-202, 6-[2-chloro-4-(6-methyl-2-pyridyl)phenyl]-8-[2-(1,1-dioxo-1 4-thiazinan-2-yl)ethyl]-2-(methylamino)pyrido[2,3-d]pyrimidin-7-one]"
